Experimental findings from patent US20190263796A1, “LIM KINASE INHIBITORS, PHARMACEUTICAL COMPOSITION AND METHOD OF USE IN LIMK-MEDIATED DISEASES” (CELLIPSE, priority 2016, published 2019) are described below.

Structures are written as SMILES. Like-named read-outs stand apart in the source and are kept apart here.

Assay [1] relates to Phospho-Ser3-Cofilin/Total Cofilin. Description: Western blot cofilin phosphorylation, MV4-11 (II.6). The note with it: MV4-11 cells. The assay is classed as cell-based. The protocol:
(§1) MV4-11 cell line was originally purchased from the American Type Culture Collection (ATCC) or from the Leibniz-Institut Deutsche Sammlung von Mikroorganismen und Zellkulturen GmbH (DSMZ). MV4-11 cells are cultured in RPMI 1640 20% (v/v) FBS supplemented with 100 U/mL^−1 penicillin, 0.1 mg·mL^−1 streptomycin (PAN Biotech P06-07100) and 2 mM Glutamine (Sigma-Aldrich 59202C). Cells were maintained at 37° C. with 5% CO2.
In a 6 wells plate (Falcon 353046), 2·10^6 cells in 1.5 mL medium are treated for 2 h with compounds. Cells are then collected and cell lysis is performed at 4° C. using RIPA buffer supplemented with protease inhibitors cocktail (Sigma-Aldrich P8340) and phosphatase inhibitors cocktail (Sigma-Aldrich P5726). Following centrifugation 30 min 15000 g 4° C., supernatants are mixed with Laemmli buffer and denaturation is performed by heating 5 min 95° C. 10 μL of samples are subjected to electrophoresis on 15% SDS-PAGE. After electro-transfer (Mini Transblot, Bio-Rad), the PVDF membrane (Merck-Millipore Immobilon P IPVH00010) is blocked with Tris Buffered Saline, pH 7.4 (TBS) with 0.1% Tween 20 and 5% BSA for 1 h RT under agitation. The membrane was rinsed 3 times 10 min at room temperature under agitation with TBS, 0.1% Tween-20 (TBST) and then 1 h at room temperature with anti-phospho-Ser3-cofilin (Cell Signaling Technology #3313, 1/1000 dilution) antibody or anti-cofilin (Cell Signaling Technology #3312, 1/1000 dilution) diluted in TBS, 0.1% Tween 20 and 1% BSA. The membrane is then rinsed 3 times 10 min at room temperature under agitation in TBST and incubated for 1 h with anti-rabbit secondary antibody, horseradish peroxidase conjugated (Jackson Immunoresearch #711-036-152) under agitation at room temperature. After three washes 10 min at room temperature in TBST, the detection of total or phosphorylated cofilin was performed using chemiluminescence kit ECL™ Plus (GE Healthcare RPN2132). For each concentration of compound, ratio between phosphorylated cofilin and total cofilin is determined. This ratio is then expressed as percentage of control ratio (i.e., ratio from DMSO treated cells). IC50 Phospho-Ser3-Cofilin/Total Cofilin is then determined.
In general terms: In western blotting, separated proteins are transferred to a membrane and probed.

Assay [2] concerns P-MEK/Total MEK. The experiment in a line: Western blot MEK1 phosphorylation, MV4-11. As to conditions: for IC50: read-out: IC50 P-MEK/Total MEK; for Selectivity ratio: IC50 P-MEK/Total MEK divided by IC50 Phospho-Ser3-Cofilin/Total Cofilin. It is filed as cell-based. On the procedure: as §1
(§2) In a 6 wells plate (Falcon 353046), 2·10^6 cells in 1.5 mL medium are treated for 2 h with compounds. Cells are then collected and cell lysis is performed at 4° C. using RIPA buffer supplemented with protease inhibitors cocktail (Sigma-Aldrich P8340) and phosphatase inhibitors cocktail (Sigma-Aldrich P5726). Following centrifugation 30 min 15000 g 4° C., supernatants are mixed with Laemmli buffer and denaturation is performed by heating 5 min 95° C. 10 μL of samples are subjected to electrophoresis on 15% SDS-PAGE. After electro-transfer (Mini Transblot, Bio-Rad), the PVDF membrane (Merck-Millipore Immobilon P IPVH00010) is blocked with Tris Buffered Saline, pH 7.4 (TBS) with 0.1% Tween 20 and 5% BSA for 1 h at room temperature under agitation. The membrane was rinsed 3 times 10 min at room temperature under agitation with TBS, 0.1% Tween-20 (TBST) and then 1 h at room temperature with anti-phospho-Ser218/222-MEK1 (Merck-Millipore 07-461, 1/1000 dilution) antibody or anti-MEK1 (Merck-Millipore 07-641, 1/1000 dilution) diluted in TBS, 0.1% Tween 20 and 1% BSA. The membrane is then rinsed 3 times 10 min RT under agitation in TBST and incubated for 1 h with anti-rabbit secondary antibody, horseradish peroxidase conjugated (Jackson Immunoresearch #711-036-152) under agitation at room temperature. After three washes 10 min at room temperature in TBST, the detection of total or phosphorylated cofilin was performed using chemiluminescence kit ECL™ Plus (GE Healthcare RPN2132). For each concentration of compound, ratio between phosphorylated cofilin and total cofilin is determined. This ratio is then expressed as percentage of control ratio (i.e., ratio from DMSO treated cells). IC50 P-MEK/Total MEK is then determined.
(§3) Selectivity ratios are calculated by dividing the IC50 P-MEK/Total MEK value (μM) by the IC50 Phospho-Ser3-Cofilin/Total Cofilin value (μM).

The subject of assay [3] is P-MEK/Total MEK. Description: Western blot MEK1 phosphorylation, K-562. The assay is classed as cell-based. As to conditions: for IC50: Homo sapiens, read-out: IC50 P-MEK/Total MEK; for Selectivity ratio: IC50 P-MEK/Total MEK divided by IC50 Phospho-Ser3-Cofilin/Total Cofilin. The protocol: K-562 cell line was originally purchased from the Leibniz-Institut Deutsche Sammlung von Mikroorganismen und Zellkulturen GmbH (DSMZ). K-562 cells are cultured in RPMI 1640 10% (v/v) FBS supplemented with 100 U/mL^−1 penicillin, 0.1 mg·mL^−1 streptomycin (PAN Biotech P06-07100). Cells were maintained at 37° C. with 5% CO2.
as §2, §3

In assay [4] the test system is P-MEK/Total MEK. Description: Western blot MEK1 phosphorylation, MOLM-14. It is filed as cell-based. As to conditions: for IC50: 2 h; for Selectivity ratio: IC50 P-MEK/Total MEK divided by IC50 Phospho-Ser3-Cofilin/Total Cofilin. On the procedure:
MOLM-14 cell line was originally purchased from the American Type Culture Collection (ATCC). MOLM-14 cells are cultured in MEM alpha 10% (v/v) FBS supplemented with 100 U/mL^−1 penicillin, 0.1 mg·mL^−1 streptomycin (PAN Biotech P06-07100). Cells were maintained at 37° C. with 5% CO2.
as §2, §3

Assay [5] addresses B-Raf(h) (Homo sapiens, UniProt P15056). The experiment in a line: B-Raf kinase assay (Eurofins Panlabs, radiometric). Details: purchased Eurofins Panlabs Inc. (contract assay service). The assay is classed as biochemical. The protocol:
IC50 B-Raf is then determined.
Selectivity ratios are calculated by dividing the IC50 B-Raf (nM) by the IC50 LIMK1 (nM).

The mark [6] stands for this setting: IC50 B-Raf (nM) divided by IC50 LIMK1 (nM), Table 8.
Where [7] appears, read: 120 μM ATP, Table 8, read-out: IC50 B-Raf.

Sequence of B-Raf(h) (P15056 whole entry): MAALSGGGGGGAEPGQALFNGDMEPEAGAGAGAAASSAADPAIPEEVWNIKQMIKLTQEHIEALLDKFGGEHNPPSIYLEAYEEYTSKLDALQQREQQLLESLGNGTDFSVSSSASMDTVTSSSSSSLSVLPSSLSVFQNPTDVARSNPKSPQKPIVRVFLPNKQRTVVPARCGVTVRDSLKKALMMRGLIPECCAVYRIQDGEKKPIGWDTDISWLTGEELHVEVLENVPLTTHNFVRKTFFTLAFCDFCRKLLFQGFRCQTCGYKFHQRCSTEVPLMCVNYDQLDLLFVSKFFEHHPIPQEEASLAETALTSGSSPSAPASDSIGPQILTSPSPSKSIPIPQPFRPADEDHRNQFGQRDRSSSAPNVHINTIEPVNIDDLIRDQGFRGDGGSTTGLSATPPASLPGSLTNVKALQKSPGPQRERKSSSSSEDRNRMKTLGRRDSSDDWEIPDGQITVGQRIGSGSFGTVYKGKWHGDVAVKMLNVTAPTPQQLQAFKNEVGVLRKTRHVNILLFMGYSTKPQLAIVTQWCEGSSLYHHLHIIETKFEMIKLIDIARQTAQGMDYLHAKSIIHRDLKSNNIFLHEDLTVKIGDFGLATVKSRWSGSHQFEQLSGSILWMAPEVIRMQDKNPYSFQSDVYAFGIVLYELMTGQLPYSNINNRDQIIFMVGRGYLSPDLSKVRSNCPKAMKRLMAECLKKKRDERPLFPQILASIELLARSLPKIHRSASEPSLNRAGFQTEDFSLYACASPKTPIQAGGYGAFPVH

Regarding `CC(C)(C)c1nc(-c2cccc(NS(=O)(=O)c3c(F)cccc3F)c2F)c(-c2ccnc(Nc3ccccc3)n2)s1` [Compound 1, N-(3-(2-(tert-butyl)-5-(2-(phenylamino)pyrimidin-4-yl)thiazol-4-yl)-2-fluorophenyl)-2,6-difluorobenzenesulfonamide], the IC50 was less than 200 nM in assay [1] (Homo sapiens, 2 h); greater than 1000 nM in assay [2] (Homo sapiens, MV4-11, 2 h); greater than 1000 nM in assay [3] (K562, 2 h); greater than 1000 nM in assay [4] (Homo sapiens, MOLM-14, 2 h, read-out: IC50 P-MEK/Total MEK, MOLM-14 cells); 10 to 100 nM in assay [5] (IC50 B-Raf, 120 μM ATP, Table 8); 500 to 5000 nM in assay [5] (IC50 B-Raf, Table 5). The Selectivity ratio in assay [2] (MV4-11 cells) was determined as 125; in assay [3] (K562 cells) it was 8; in assay [4] (MOLM-14 cells), 40; in assay [5] (setting [6]) it was 8. Moreover, in assay [5] (IC50 B-Raf (nM) divided by IC50 LIMK1 (nM)), the “selectivity ratio for LIMK1 over B-Raf” value is recorded as “about 20”.
Turning to `O=S(=O)(Nc1cccc(-c2nc(CCO)sc2-c2ccnc(Nc3ccccc3)n2)c1F)c1c(F)cccc1F` [Compound 8, 2,6-difluoro-N-(2-fluoro-3-(2-(2-hydroxyethyl)-5-(2-(phenylamino)pyrimidin-4-yl)thiazol-4-yl)phenyl)benzenesulfonamide], the IC50 in assay [1] (Homo sapiens, MV4-11, 2 h) was 200 to 1000 nM; in assay [2] (Homo sapiens, MV4-11 cells, 2 h), greater than 1000 nM; in assay [3] (K562 cells, 2 h), 200 to 1000 nM; in assay [4] (Homo sapiens, MOLM-14 cells, read-out: IC50 P-MEK/Total MEK), greater than 1000 nM. The Selectivity ratio was determined as 4 in assay [2] (MV4-11 cells), 20 in assay [3] (K562 cells) and 100 in assay [4] (MOLM-14 cells).
In the case of `O=S(=O)(Nc1cccc(-c2nc(CCO)sc2-c2ccnc(Nc3ccccc3)n2)c1F)c1c(F)cccc1F` [8 (Na)], the IC50 in assay [1] (2 h) is less than 200 nM; in assay [2] (MV4-11 cells, 2 h) it was greater than 1000 nM; in assay [4] (MOLM-14 cells, read-out: IC50 P-MEK/Total MEK), greater than 1000 nM; in assay [5] (setting [7]), 10 to 100 nM. The figures for the Selectivity ratio in assay [2] (MV4-11 cells), in assay [4] (MOLM-14 cells) and in assay [5] (setting [6]) were 6, 30 and 9, respectively.
For the molecule `CNC(=O)Cc1nc(-c2cccc(NS(=O)(=O)c3c(F)cccc3F)c2F)c(-c2ccnc(Nc3ccccc3)n2)s1` [Compound 9, 2-(4-(3-(2,6-difluorophenylsulfonamido)-2-fluorophenyl)-5-(2-(phenylamino)pyrimidin-4-yl)thiazol-2-yl)-N-methylacetamide], the IC50 in assay [1] (Homo sapiens, 2 h) is 200 to 1000 nM; in assay [2] (Homo sapiens, MV4-11, 2 h) it was greater than 1000 nM; in assay [3] (K562, 2 h), greater than 1000 nM; in assay [4] (read-out: IC50 P-MEK/Total MEK, MOLM-14 cells), greater than 1000 nM; in assay [5] (setting [7]), 10 to 100 nM.
